In US20250338846A1, “COMPOSITIONS HAVING PESTICIDAL UTILITY AND PROCESSES RELATED THERETO” (CORTEVA AGRISCIENCE, LLC, priority 2022, published 2025):
Several values for one entry are separate records, joined by “and”; a condition that tells them apart may be missing. Identical values can stand only once.

Key:
[1] = system: Western Tarnished Plant Bug (Lygus hesperus, LYGUHE); assay: Bioassay 4: Western Tarnished Plant Bug, soaked green bean segments, living nymphs 3 days after application; format: in vivo
Protocol: where X=No. of live nymphs on solvent check leaf discs and Y=No. of live nymphs on treated leaf discs. In Table B3 the “Expected % Control” was calculated using the method described in Colby S. R., Weeds, 1967, 15, 20-22. Bioassay 4: Western Tarnished Plant Bug (Lygus hesperus, LYGUHE) (“WTPB”).
Stock solutions were prepared with Formula One as well as for each of the active ingredients individually. Test solutions were prepared from the stock solutions. Test solutions were prepared containing Formula One, the individual active ingredients, and mixtures of Formula One with each of the active ingredients. The test solution for Formula One was prepared by adding 500 μL of the stock solution to a 25 mL glass vial, then adding 500 μL of acetone, followed by the addition of 9 mL water with 0.025% Tween®) 20 to create a 0.04% (w/v) solution. The test solutions of the individual active ingredients were prepared by adding 500 μL of stock solution to a 25 mL glass vial, then adding 500 μL of acetone, followed by the addition of 9 mL water with 0.025% Tween®) 20 to create a 0.005% (w/v) solution. The test solutions containing mixtures of Formula One and the individual active ingredients were prepared by adding 500 μL of the active ingredient stock solution to a 25 mL glass vial, followed by 500 μL of the Formula One stock solution, then by the addition of 9 mL water with 0.025% Tween®) 20 to create a test solution containing 0.04% (w/v) Formula One and 0.005% (w/v) of the active ingredient. Each test solution was serially diluted to create desired doses of test solutions (0.005% (w/v), 0.00125% (w/v), 0.0003125% (w/v), 0.000078% (w/v), and 0.0000195% (w/v)). In test solutions containing mixtures of Formula One and the active ingredients, the active ingredients were diluted as described above, but the Concentration of Formula One was held constant (0.04% (w/v)).
The test solutions were tested against WTPB using the following procedure: Fresh green beans were cut into segments approximately 1.5 inches long. Four bean segments were added to each 25 mL vial containing the test solutions and soaked for approximately 15 minutes. After soaking, a single bean fragment was removed and placed into a single well of a 32-well rearing tray (Frontier Agricultural Sciences™), on top of a round filter paper disc. A reference treatment (solvent check) was treated with the diluent only. Each treatment was replicated four times and the test treatments were held at approximately 26° C. and ambient relative humidity (RH) prior to grading. Bean segments were allowed to air dry for ˜30 minutes. Three WTPB nymphs were added to and contained in each well with a clear perforated adhesive lid. The total number of living WTPB nymphs was recorded 3 days after application. Scoring was based off the total number of living nymphs out of all four replicates. Percent control was measured using Abbott's correction formula (W. S. Abbott, J. Econ. Entomol. 18 (1925), pp. 265-267) as follows:
X=No. of live nymphs on solvent check and Y=No. of live nymphs on treated bean segments. In Table B4 the “Expected % Control” was calculated using the method described in Colby S. R., Weeds, 1967, 15, 20-22. Bioassay 5: Neotropical Brown Stink Bug (Euschistus heros, EUSCHE) (“BSB”).

[2] = system: Green Peach Aphid (Myzus persicae, MYZUPE); assay: Bioassay 1: Green Peach Aphid, foliar spray on infested cabbage seedlings, live aphids counted three days after treatment; format: in vivo
Protocol: Bioassay 1: Green Peach Aphid (Myzus persicae, MYZUPE) (“GPA”).
The stock solutions were prepared with Formula One as well as for each of the active ingredients individually. Test solutions were prepared from the stock solutions. Test solutions were prepared containing Formula One, the individual active ingredients, and mixtures of Formula One with each of the active ingredients. The test solutions for Formula One and the individual active ingredients were prepared by adding 750 microliters (μL) of stock solution to a 25 mL glass vial, then adding 750 μL of 1:1 acetone: methanol solvent, followed by the addition of 13.5 ml water with 0.025% Tween®) 20 to create a 0.0005% (weight/volume (w/v)) solution. The test solutions containing mixtures of Formula One and the individual active ingredients were prepared by adding 750 μL of the active ingredient stock solution to a 25 mL glass vial, followed by 750 μL of the Formula One stock solution, then by the addition of 13.5 mL water with 0.025% Tween®) 20 to create a test solution containing 0.0005% (w/v) Formula One and 0.0005% (w/v) of the active ingredient. Each test solution was serially diluted to create desired doses of test solutions (0.0005% (w/v), 0.000125% (w/v), 0.00003125% (w/v), 0.0000078% (w/v), 0.00000195% (w/v), and 0.0000005% (w/v)).
The test solutions were tested against GPA using the following procedure: Cabbage seedlings, grown in 3-inch pots with 2-3 small (3-5 centimeter (cm)) true leaves, were used as test substrate. The seedlings were infested with 20-50 GPA (wingless adult and nymph stages) one day prior to chemical application. Four pots with individual seedlings were used for each treatment. A hand-held aspirator-type sprayer was used for spraying a solution to both sides of […] leaves until runoff. Reference plants (solvent check) were sprayed with the diluent only (0.025% Tween®) 20 and 10% acetone:methanol (1:1) in water). Treated plants were held in a holding room for three days at approximately 25° C. and ambient relative humidity (RH about 20% to about 45%) prior to grading. Evaluation was conducted by counting the number of live aphids per plant under a microscope three days after treatment. Percent control was measured using Abbott's correction formula (W. S. Abbott, J. Econ. Entomol. 18 (1925), pp. 265-267) as follows:
where X=No. of live aphids on solvent check plants and Y=No. of live aphids on treated plants. In Table B1 the “Expected % Control” was calculated using the method described in Colby S. R., Weeds, 1967, 15, 20-22. Bioassay 2: Sweet Potato Whitefly (Bemisia tabaci, BEMITA) (“SPW”).

Compound: CN1COCN(Cc2cnc(Cl)s2)/C1=N\[N+](=O)[O-] [Thiamethoxam]
- Average % Control AI ([1]; AI alone 0.0003125 % w/v): 65%

Compound: Abamectin
- Average % Control AI ([1]; AI alone 0.00125 % w/v): 0%

Compound: Cc1c(COC(=O)[C@@H]2[C@H](/C=C(\Cl)C(F)(F)F)C2(C)C)cccc1-c1ccccc1 (racemic) [Bifenthrin]
- Average % Control AI ([2]; AI alone 0.78 (10^-5) % w/v): 52%
- Average % Control AI ([1]; AI alone 0.00125 % w/v): 17%

Compound: CC[S+]([O-])c1c(C#N)nn(-c2c(Cl)cc(C(F)(F)F)cc2Cl)c1N (stereo not drawn) [Ethiprole]
- Average % Control AI ([2]; AI alone 3.125 (10^-5) % w/v): 0%

Compound: Emamectin Benzoate
- Average % Control AI ([2]; AI alone 3.125 (10^-5) % w/v): 21%

Compound: COP(=O)(NC(C)=O)SC (stereo not drawn) [Acephate]
- Average % Control AI ([1]; AI alone 0.005 % w/v): 0%

Compound: CON=CNC(=O)c1ccc(C2=NOC(c3cc(Cl)cc(Cl)c3)(C(F)(F)F)C2)cc1C (stereo not drawn) [Fluxametamide]
- Average % Control AI ([2]; AI alone 12.5 (10^-5) % w/v): 0%

Compound: CC1(C)[C@H](C(=O)O[C@H](C#N)c2cccc(Oc3ccccc3)c2)[C@@H]1/C=C(\Cl)C(F)(F)F (racemic) [Lambda Cyhalothrin]
- Average % Control AI ([2]; AI alone 0.78 (10^-5) % w/v): 40%
- Average % Control AI ([1]; AI alone 0.000078 % w/v): 0%

Compound: O=[N+]([O-])NC1=NCCN1Cc1ccc(Cl)nc1 [Imidacloprid]
- Average % Control AI ([1]; AI alone 0.00125 % w/v): 13%

Compound: C/C(=N\C#N)N(C)Cc1ccc(Cl)nc1 [Acetamiprid]
- Average % Control AI ([2]; AI alone 0.78 (10^-5) % w/v): 24%
- Average % Control AI ([1]; AI alone 0.00125 % w/v): 0%

Compound: CCN(C(=O)CCS(C)(=O)=O)c1sc(-c2cccnc2)nc1Cl [Formula F1, N-(4-chloro-2-(pyridin-3-yl)thiazol-5-yl)-N-ethyl-3-(methylsulfonyl)propanamide]
- Average % Control F1 ([2]; F1 alone 0.05 (10^-5) % w/v): 29%
- Average % Control F1 ([2]; F1 alone 0.195 (10^-5) % w/v): 13%
- Average % Control F1 ([2]; F1 alone 0.78 (10^-5) % w/v): 28%
- Average % Control F1 ([2]; F1 alone 3.125 (10^-5) % w/v): 30% and 35%
- Average % Control F1 ([2]; F1 alone 12.5 (10^-5) % w/v): 39%
